Here are results for one molecule from patent publication US12195505B2, “Treatment of cystic fibrosis by delivery of nebulized mRNA encoding CFTR” (Translate Bio, Inc., priority 2018, dated 2025).

In the experiment the test system is human bronchial epithelial cells. As to the kind of experiment: Ussing chamber assay, Forskolin-induced chloride channel activity. Format: cell-based. The note with it: added after current measurement, all groups. As to the method:
The changes in chloride transport across the bronchial epithelial cell membrane was measured by short circuit current output in a Ussing epithelial voltage clamp apparatus (i.e., a Ussing chamber). Specifically, using an established Ussing Chamber procedure (Charles River Laboratories), hCFTR mRNA encapsulated in a liposome comprising ICE, DOPE, and a PEG-modified lipid was incubated for 2 or 4 hours on the apical (mucosal) or basolateral (serosal) sides, or both sides, of human bronchial epithelial cells. A buffer blank also was included as a control, for example, to assess chloride transport by endogenous CFTR in the cells. Next, Forskolin-induced chloride channel activity was measured using the Ussing chamber assay.

Regarding `O=C(O)c1ccc(/C=C2\SC(=S)N(c3cccc(C(F)(F)F)c3)C2=O)cc1` [CFTR inhibitor-172], the “Effect on chloride activity in Ussing chamber” value is “inhibited”.
